Experiments:
Format in all cases: in vivo, 'Huangjinye' tea tree variety
[1] = test system: tea tree; assay: Malondialdehyde (MDA) content of tea tree leaves after spraying sodium selenite, with and without simulated sunburn; conditions: 3 mg/L Na2SeO3 sprayed
Method: A method for preventing and/or alleviating tea tree sunburn included: • Experimental base: artificial climate chamber of Anhui Agricultural University; • Experimental subjects: ‘Huangjinye’ tea tree variety;
2. Preparation of Na2SeO3 treatment solution: 3.0 mg sodium selenite crystal powder was dissolved in 1 L of pure water (concentration: 3.0 mg/L).
3. Seedling growth environment: the purchased tea seedlings were planted in a flower pot with a diameter of 20 cm (nutrient soil, vermiculite, and perlite) were at a volume ratio of 2:1:1, and then placed in a glass greenhouse.
Normal growth environment: temperature 28° C., humidity 80%, and light intensity500 μmol·m^−2·s^−1.
Sunburn-simulated environment: temperature 34° C., humidity 60%, and light intensity 1,600 μmol·m^−2·s^−1.
4. […]
After sunburn treatment for 4 h, 0.5 g samples of the 3rd and 4th leaves of mature tea tree leaves were added in a mortar separately, added with 5 mL of 5% (v/v) trichloroacetic acid and ground. […] After rapid cooling and centrifugation at 4,000 r/min for 10 min, a supernatant was detected using a UV spectrophotometer at […], 600 nm, and 450 nm separately, and the data were recorded and analyzed. […]

[2] = test system: tea tree sunburn; assay: Fv/Fm value of tea trees treated with exogenous selenium under sunburn; conditions: under sunburn conditions (water treatment group: 42.09%)
Method: (§1) 4. Anti-sunburn test of different concentrations of selenium: tea seedlings with roughly the same growth rate were sprayed with 0, 1.0, 2.0, 3.0, and 4.0 mg/L sodium selenite solution on the surface of their leaves at a distance of 3 cm to 5 cm from the leaves until liquid droplets were falling from the leaves, spray once a day for continuous 4 days; while a control group was sprayed with the same amount of water.
(§2) After an interval of 2 d after the end of the external treatment, the tea seedlings were placed in an artificial climate chamber (temperature: 34° C., humidity: 60%, light intensity: 1600 μmol·m^−2·s^−1) to allow simulated sunburn treatment for 4 h, and then observed, photographed, and statistics were made.
Influences of different concentrations of selenium on the apparent morphology of tea trees under sunburn: compared with the selenium treatment group, the water treatment group had the largest number of burned leaves and the largest lesion area. […] The decrease in Fv/Fm value of tea trees in the 4 selenium treatment groups was smaller than that in the water treatment group, where the Fv/Fm value of the treatment with a selenium concentration of 3.0 mg/L had the minimum decrease. Moreover, external spraying of sodium selenite could indeed alleviate the tea tree sunburn, and 3.0 mg/L Na2SeO3 solution had the best effect.

[3] = test system: tea tree sunburn; assay: Anti-sunburn test of different concentrations of selenium: disease index, incidence and control effect after simulated sunburn; conditions: for Incidence: foliar spray 4 days, simulated sunburn 4 h; for Disease index: foliar spray once a day for 4 days, simulated sunburn 34° C., 1600 μmol·m^−2·s^−1, 4 h; for Efficacy (control effect): calculated from disease index vs control group
Method: A method for preventing and/or alleviating tea tree sunburn included: • Experimental base: artificial climate chamber of Anhui Agricultural University; • Experimental subjects: ‘Huangjinye’ tea tree variety; • Experimental procedure:
2. Preparation of Na2SeO3 treatment solutions with different concentrations: 1.0, 2.0, 3.0, and 4.0 mg sodium selenite crystal powders were dissolved in 1 L of pure water (with final concentrations of 1.0, 2.0, 3.0, and 4.0 mg/L, respectively).
3. Seedling cultivation: the purchased tea seedlings were planted in a flower pot with a diameter of 20 cm, where nutrient soil, vermiculite, and perlite were at a volume ratio of 2:1:1; growth environment: temperature 28° C., humidity 80%, and light intensity 500 μmol·m^−2·s^−1.
as §1, §2
The number of leaves at each disease level was counted according to the degree of disease susceptibility, and the average incidence rate and disease index were calculated according to the formula to determine the severity of tea leaf diseases. Incidence rate=number of diseased leaves/total number of investigated leaves×100%, disease index=[Σ(number of leaves at each disease level×representative value of disease level)/(total number of investigated leaves×representative value of highest level)]×100; control effect (%)=[(control group condition index-treatment group condition index)/control group condition index]×100%.

[4] = selenium concentration 1.0 mg/L
[5] = selenium concentration 2.0 mg/L
[6] = selenium concentration 3.0 mg/L
[7] = selenium concentration 4.0 mg/L

Question: Which results are given for `O=[Se]([O-])[O-].[Na+].[Na+]` [selenium, sodium selenite]?
Answer: Reduction of MDA content compared with the control ([1]; non-sunburn growth conditions (Se vs CK)): 22.14%; Decrease of MDA content compared with the water treatment group under sunburn ([1]; simulated sunburn 4 h (SeH vs CKH)): 19.89%; Decrease of Fv/Fm value compared with the control CK [2, 4]: 30.29%; Decrease of Fv/Fm value compared with the control CK [2, 5]: 23.72%; Decrease of Fv/Fm value compared with the control CK [2, 6]: 17.86%; Decrease of Fv/Fm value compared with the control CK [2, 7]: 34.32%; Number of sunburned leaves and area of diseased spots (apparent morphology) ([3]; concentration of 3.0 mg/L, among the four spraying concentrations, under sunburn): least amount and the smallest lesion area; Reduction of incidence of sunburn compared with the group without selenium treatment [3, 4]: 33.83%; Incidence [3, 4]: 12.11 ± 3.38b %; Disease index [3, 4]: 1.13 ± 0.26bc; Efficacy (control effect) [3, 4]: 42.61%; Reduction of incidence of sunburn compared with the group without selenium treatment [3, 5]: 29.62%; Incidence [3, 5]: 12.88 ± 0.66ab %; Disease index [3, 5]: 1.13 ± 0.35bc; Efficacy (control effect) [3, 5]: 42.61%; Reduction of incidence of sunburn compared with the group without selenium treatment [3, 6]: 78.14%; Incidence [3, 6]: 4.00 ± 0.00d %; Disease index [3, 6]: 0.22 ± 0.08 days; Efficacy (control effect) [3, 6]: 89.38%; Reduction of incidence of sunburn compared with the group without selenium treatment [3, 7]: 9.84%; Incidence [3, 7]: 16.50 ± 3.80a %; Disease index [3, 7]: 1.62 ± 0.23ab; Efficacy (control effect) [3, 7]: 17.58%
